Assays:
K562 = assay: Antiproliferative activity against human K562 cells after 72 hrs; assay type: functional, cell-based; conditions: K562, 72 h
[1] = biological target: Inosine-5'-monophosphate dehydrogenase 1 (Homo sapiens, UniProt P20839); assay: Inhibition of human IMPDH type 1
[2] = biological target: L-lactate dehydrogenase (Bos taurus); assay: Inhibition of bovine heart lactate dehydrogenase
[3] = biological target: Inosine-5'-monophosphate dehydrogenase 2 (Homo sapiens, UniProt P12268); assay: Inhibition of human IMPDH type 2
[4] = biological target: Malate dehydrogenase (Sus scrofa); assay: Inhibition of porcine heart malate dehydrogenase
[5] = Inhibition of horse liver alcohol dehydrogenase; design: species or system Equus caballus

Sequence of Inosine-5'-monophosphate dehydrogenase 1 (P20839 whole entry): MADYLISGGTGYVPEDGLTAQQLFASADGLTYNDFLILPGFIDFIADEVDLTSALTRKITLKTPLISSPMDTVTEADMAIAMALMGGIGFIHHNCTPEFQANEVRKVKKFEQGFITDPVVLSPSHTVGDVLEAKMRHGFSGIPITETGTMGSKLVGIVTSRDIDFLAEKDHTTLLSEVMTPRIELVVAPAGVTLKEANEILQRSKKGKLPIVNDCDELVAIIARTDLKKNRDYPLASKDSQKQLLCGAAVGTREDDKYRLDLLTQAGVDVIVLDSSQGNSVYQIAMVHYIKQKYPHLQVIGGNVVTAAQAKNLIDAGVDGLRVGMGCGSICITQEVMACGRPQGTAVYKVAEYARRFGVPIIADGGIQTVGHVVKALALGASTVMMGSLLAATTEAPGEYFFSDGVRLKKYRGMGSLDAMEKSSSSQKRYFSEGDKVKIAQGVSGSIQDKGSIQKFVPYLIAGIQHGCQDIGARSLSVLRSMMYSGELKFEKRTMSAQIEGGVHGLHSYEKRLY

In the case of COc1c(C)c2c(c(O)c1C/C=C(\C)CCC(=O)O)C(=O)OC2 [MYCOPHENOLIC ACID], the IC50 (K562) is reported as 7700 nM.

For NC(=O)c1csc([C@@H]2O[C@H](COP(=O)(O)OP(=O)(O)OC[C@H]3O[C@@H](n4cnc5c(N)nc(-c6ccccc6)nc54)[C@H](O)[C@@H]3O)[C@@H](O)[C@H]2O)n1, the Ki [1] was 20 nM, the IC50 [2] was greater than 50000 nM and the Ki [3] was 143 nM. For the same compound, the IC50 [4] was greater than 50000 nM.

NC(=O)c1csc([C@@H]2O[C@H](COP(=O)(O)OP(=O)(O)OC[C@H]3O[C@@H](n4cnc5c(N)ncnc54)[C@H](O)[C@@H]3O)[C@@H](O)[C@H]2O)n1 [TIAZOFURIN ADENINE DINUCLEOTIDE] gave an IC50 (K562) of 12400 nM.

For C=Cc1nc(N)c2ncn([C@@H]3O[C@H](COP(=O)(O)OP(=O)(O)OC[C@H]4O[C@@H](c5nc(C(N)=O)cs5)[C@H](O)[C@@H]4O)[C@@H](O)[C@H]3O)c2n1, the Ki [1] was 96 nM, the IC50 [2] was greater than 50000 nM and the Ki [3] was 94 nM. For the same compound, the IC50 [5] was 39000 nM and the IC50 [4] was greater than 50000 nM.

For NC(=O)c1csc([C@@H]2O[C@H](COP(=O)(O)OP(=O)(O)OC[C@H]3O[C@@H](n4cnc5c(N)nc(N)nc54)[C@H](O)[C@@H]3O)[C@@H](O)[C@H]2O)n1, the Ki [1] was 7 nM, the IC50 [2] was greater than 50000 nM and the IC50 [5] was greater than 50000 nM. It also gave an IC50 [4] greater than 50000 nM.

With C#Cc1nc(N)c2ncn([C@@H]3O[C@H](COP(=O)(O)OP(=O)(O)OC[C@H]4O[C@@H](c5nc(C(N)=O)cs5)[C@H](O)[C@@H]4O)[C@@H](O)[C@H]3O)c2n1 the Ki [1] was 10 nM, the IC50 [2] was greater than 50000 nM and the Ki [3] was 49 nM. It also gave an IC50 [5] greater than 50000 nM and an IC50 [4] greater than 50000 nM.

In the case of NC(=O)c1csc([C@@H]2O[C@H](COP(=O)(O)OP(=O)(O)OC[C@H]3O[C@@H](n4cnc5c(N)nc(Nc6ccccc6)nc54)[C@H](O)[C@@H]3O)[C@@H](O)[C@H]2O)n1, the Ki [1] is reported as 45 nM, the IC50 [2] is reported as greater than 50000 nM and the Ki [3] is reported as 153 nM. The IC50 [5] was greater than 50000 nM and the IC50 [4] was greater than 50000 nM.

NC(=O)c1csc([C@@H]2O[C@H](COP(=O)(O)OP(=O)(O)OC[C@H]3O[C@@H](n4cnc5c(N)nc(I)nc54)[C@H](O)[C@@H]3O)[C@@H](O)[C@H]2O)n1 gave a Ki [1] of 19 nM, an IC50 [2] greater than 50000 nM and a Ki [3] of 84 nM. The IC50 [4] was greater than 50000 nM.

COc1c(C)c2c(c(O)c1CCOP(=O)(O)CP(=O)(O)OC[C@H]1O[C@@H](n3cnc4c(N)nc(-c5ccccc5)nc43)[C@H](O)[C@@H]1O)C(=O)OC2 showed a Ki [1] of 66 nM, an IC50 [2] greater than 50000 nM and a Ki [3] of 108 nM. For the same compound, the IC50 [5] was greater than 50000 nM, the IC50 (K562) was 1100 nM and the IC50 [4] was 14300 nM.

Compound CCc1nc(N)c2ncn([C@@H]3O[C@H](COP(=O)(O)OP(=O)(O)OC[C@H]4O[C@@H](c5nc(C(N)=O)cs5)[C@H](O)[C@@H]4O)[C@@H](O)[C@H]3O)c2n1 has a Ki [1] of 1 nM, an IC50 [2] greater than 50000 nM and an IC50 [5] greater than 50000 nM. The IC50 [4] was greater than 50000 nM.

For NC(=O)c1csc([C@@H]2O[C@H](COP(=O)(O)OP(=O)(O)OC[C@H]3O[C@@H](n4cnc5c(N)nc(NCCc6ccccc6)nc54)[C@H](O)[C@@H]3O)[C@@H](O)[C@H]2O)n1, the Ki [1] was 73 nM, the IC50 [2] was greater than 50000 nM and the Ki [3] was 255 nM. It also gave an IC50 [4] of 12700 nM.

Work on NC(=O)c1csc([C@@H]2O[C@H](COP(=O)(O)OP(=O)(O)OC[C@H]3O[C@@H](n4cnc5c(N)nc(NCc6ccccc6)nc54)[C@H](O)[C@@H]3O)[C@@H](O)[C@H]2O)n1 yielded a Ki [1] of 45 nM, an IC50 [2] greater than 50000 nM and a Ki [3] of 169 nM. For the same compound, the IC50 [4] was 30000 nM.

— ChEMBL document CHEMBL1138261, “Probing binding requirements of type I and type II isoforms of inosine monophosphate dehydrogenase with adenine-modified nicotinamide adenine dinucleotide analogues” (J Med Chem, 2007)
